Results on 12 compounds are retold here after US8450352B2, “Thiazole compounds and their use for inhibiting phosphodiesterase 4, TNF-α, and IL-4” (Otsuka Pharmaceutical Co., Ltd., priority 2004, dated 2013).

The subject of one series is TNF-α production. The series can be described thus: Measurement of TNF-α production inhibitory activity. Format: cell-based. As to conditions: PBMC; concentration that inhibits TNF-α production by 50%; LPS (1 μg/ml)-stimulated human peripheral blood mononuclear cells, 24 hours, ELISA. As to the method:
Measurement of TNF-α Production Inhibitory Activity
The following tests were performed to evaluate TNF-α production inhibitory activity.
(1) Separation of Human Peripheral Blood Mononuclear Cells
A peripheral blood sample was obtained from a healthy adult donor who had signed a written informed consent. Thirty milliliters of the blood sample, which had been heparinized, was dispensed into a Leucosep tube (Greiner) containing 16 ml of a lymphocyte separation solution (Nakarai Chemical, Ltd.) under the filter barrier, and centrifuged at 1000×g for 15 minutes.
The intermediate layer corresponding to a mononuclear cell fraction was collected in a 50 ml centrifuge tube, and washed twice with a RPMI 1640 medium. After trypan blue staining, the viable count was determined and adjusted to 2×10^6 cells/ml with RPMI 1640 medium.
(2) Induction of TNF-α Production
E. coli (Serotype 055:B5)-derived LPS, which had been dissolved in a RPMI 1640 medium to a concentration of 5 mg/ml, sterilized by filtration and stored in a freezer, was melted and diluted with a RPMI 1640 medium to 10 μg/ml. The test substances were dissolved in DMSO to obtain solutions with a concentration of […] the final use concentration. One microliter of each of the graded concentration test substance solutions, 149 μl of RPMI 1640 medium, 50 μl of LPS solution (final concentration: 1 μg/ml), 50 μl of fetal bovine serum, and […] of the peripheral blood mononuclear cell suspension were dispensed to each well of a 48-well plate and incubated at 37° C. for 24 hours.
(3) Measurement of TNF-α Concentration
After completion of the incubation, the culture supernatant was collected from each well, and the TNF-α concentration in the supernatant was measured by ELISA method (Human TNF-α Eli-pair, Diaclone).
(In general: ELISA stands for enzyme-linked immunosorbent assay.)

Another series addresses T1, human PDE4D (HPDE4D) (Homo sapiens, UniProt Q08499).
T1 construct: made in house; host or cells: COS-7 cells (African green monkey kidney), transient transfection; soluble supernatant of the homogenate
The series can be described thus: Confirmatory test for phosphodiesterase (PDE) 4 inhibitory activity. Format: biochemical. As to conditions: concentration that inhibits the PDE4 activity by 50%; PDE4D enzyme solution from transfected COS-7 cells, [3H]cAMP substrate. The text has this: Confirmatory Test for Phosphodiesterase (PDE) 4 Inhibitory Activity
(1) Mass Preparation of Plasmids
Plasmids containing genes coding for human PDE4D (HPDE4D) (stored in Otsuka America Pharmaceutical, Inc., Maryland Research Laboratories) were transformed into Escherichia coli, and mass cultured. The plasmids were then purified using EndoFree™ Plasmid Mix Kit (Qiagen).
(2) Mass expression and purification of PDE4D
African green monkey kidney-derived COS-7 cells (RCB 0539) were subcultured in a DMEM medium containing 100 units/ml penicillin, […] streptomycin and 10% FBS. The plasmids prepared in (1) were transfected into the cells, using LipofectAMINE™ 2000 Reagent (hereinafter referred to as “LF2000”, a product of Invitroge), according to the attached protocol. For comparison, pcDNA3.1 was transfected as a control vector. The COS-7 cells were inoculated into 10 cm diameter petri dishes on the day before transfection, so that the cells reached 90% confluence on the day of transfection. Twelve micrograms of the plasmids diluted with 0.9 ml of OPTI-MEM I (Invitrogen) (a plasmid solution; Solution A) and 30 μl of LF2000 diluted with 0.9 ml of OPTI-MEM I (a LF2000 solution; Solution B) were prepared per petri dish, and allowed to stand at room temperature for 5 minutes. Solutions A and B were then mixed together and allowed to stand at room temperature for 20 minutes. The mixture was added to the cultured cells, and incubation was performed overnight at 37° C. in an atmosphere of 5% CO2. The culture medium was changed on the following day, incubation was continued overnight, and the cells were collected by the following procedure. First, the cells were washed once with PBS (Sigma), and 2 ml of Trypsin-EDTA solution (Sigma) was added per petri dish, spread over the dish and removed. The cells were then allowed to stand at 37° C. for 2 to 3 minutes, separated from the petri dish and suspended in a medium. The suspension was placed in a centrifuge tube, and centrifuged at 200×g and 4° C. for 5 minutes. The supernatant was then removed. The cells were further washed with PBS and stored at −80° C. A KHEM buffer (50 mM Hepes, 50 mM KCl, 10 mM EGTA, 1.92 mM MgCl2, pH 7.2) containing 1 mM DTT, 40 μg/ml PMST, 156 μg/ml benzamidine, 1 μg/ml apotinin, 1 μg/ml leupeptin, 1 μg/ml pepstatin A, and 1 μg/ml antipain was added to the cells that had been stored, and the resulting mixture was placed in a glass homogenizer and homogenized on ice. The cell suspension was centrifuged at 100×g and 4° C. for 5 minutes, and the supernatant was further centrifuged at 100,000×g for 1 hour. Thereafter, the supernatant was dispensed into new tubes as a PDE4D enzyme solution, and stored in an ultra-low-temperature freezer. The protein concentration of the PDE4D enzyme solution was then measured.
(3) Determination of Dilution Factor of PDE4D Enzyme Solution
The PDE4D enzyme solution prepared in (2) was diluted 10-, 25-, 50-, 100-, 200-, 400- and 800-fold with 20 mM Tris-HCl (pH 7.4), and the PDE4D activities of the diluted enzyme solutions were measured by the method described in (4) to determine the optimum dilution factor to obtain a PDE4D enzyme solution in which degraded cAMP constituted 10 to 30% of the total cAMP.
(4) Measurement of PDE4D Inhibitory Activity
The necessary amount of each test substance was weighed out and dissolved in 100% DMSO to a concentration of 10 mM. The resulting solutions were stored in a freezer as test substance stock solutions. Before the inhibitory activity measurement, the stock solutions were melted, diluted 2-fold with 100% DMSO to a concentration of 5 mM, and further diluted with 100% DMSO to obtain test substance solutions with 10 graded concentrations. Each test substance solution was added to a 1.2 ml tube containing 23 μl of 20 mM Tris-HCl (pH 7.4). […]

Where a name gives a salt, the structure may show the parent alone.

T1 sequence (Q08499 whole entry): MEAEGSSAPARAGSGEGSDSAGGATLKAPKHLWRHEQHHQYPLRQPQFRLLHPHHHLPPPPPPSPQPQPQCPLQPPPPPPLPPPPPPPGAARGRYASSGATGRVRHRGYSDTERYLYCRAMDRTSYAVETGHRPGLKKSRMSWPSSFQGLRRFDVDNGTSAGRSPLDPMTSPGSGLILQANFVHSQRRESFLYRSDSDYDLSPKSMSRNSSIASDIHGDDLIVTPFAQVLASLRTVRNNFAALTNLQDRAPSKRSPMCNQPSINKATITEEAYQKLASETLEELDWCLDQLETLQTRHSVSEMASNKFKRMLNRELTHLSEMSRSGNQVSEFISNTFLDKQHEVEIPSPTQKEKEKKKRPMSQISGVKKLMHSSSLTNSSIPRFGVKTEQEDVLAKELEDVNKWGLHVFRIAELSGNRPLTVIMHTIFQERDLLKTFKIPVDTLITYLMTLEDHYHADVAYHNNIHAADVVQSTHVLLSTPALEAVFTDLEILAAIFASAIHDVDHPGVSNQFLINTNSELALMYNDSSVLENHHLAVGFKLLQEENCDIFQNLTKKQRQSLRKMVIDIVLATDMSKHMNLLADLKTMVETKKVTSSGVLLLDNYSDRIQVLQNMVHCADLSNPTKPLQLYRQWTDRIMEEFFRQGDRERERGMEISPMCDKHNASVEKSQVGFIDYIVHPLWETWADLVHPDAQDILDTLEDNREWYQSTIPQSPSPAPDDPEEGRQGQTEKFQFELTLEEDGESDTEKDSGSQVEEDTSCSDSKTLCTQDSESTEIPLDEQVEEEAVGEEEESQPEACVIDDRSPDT

`CCOc1ccc(-c2nc(/C=C/C(=O)c3ccccc3OC)cs2)cc1OCC` [Example 1, (E)-3-[2-(3,4-diethoxyphenyl)thiazole-4-yl]-1-(2-methoxyphenyl)propenone] had a melting point of 130 to 131 °C. Also, in the series on TNF-α production, 8 nM corresponded to half-maximal inhibition (IC50). Besides, the IC50 against human PDE4D (HPDE4D) turned out to be 23.6 nM.
For the compound `CCOc1ccc(-c2nc(CCC(=O)c3ncccc3OCC)cs2)cc1OCC` [Example 87, 3-[2-(3,4-diethoxyphenyl)thiazole-4-yl]-1-(3-ethoxypyridine-2-yl)-1-propanone], at human PDE4D (HPDE4D), half-maximal inhibition (IC50) required 0.2 nM.
`CCOc1ccc(-c2nc(CCC(=O)c3ncccc3OC)cs2)cc1OCC` [Example 88, 3-[2-(3,4-diethoxyphenyl)thiazole-4-yl]-1-(3-methoxypyridine-2-yl)-1-propanone]: the melting point lay in the range of 79.2 to 79.7 °C. At human PDE4D (HPDE4D), the midpoint of inhibition, the IC50, lay at 0.4 nM.
`CCOc1ccc(-c2nc(CCC(=O)c3ccccc3OC)cs2)cc1OCC` [Example 89, 3-[2-(3,4-diethoxyphenyl)thiazole-4-yl]-1-(2-methoxyphenyl)-1-propanone] came in with a melting point of 68.9 to 69.3 °C. For the same compound, in the series with TNF-α production, the IC50 worked out at 7 nM.
In the same order, the values of `CCOc1ccc(-c2nc(CCC(=O)c3ccccc3)cs2)cc1OCC` [Example 91] are 113.3 to 113.6 °C and 543 nM.
Compound `CCOc1ccc(-c2nc(CCC(=O)c3ccccc3C(F)(F)F)cs2)cc1OCC` [Example 99] gave a melting point of 91.7 to 93 °C. This compound also gave an IC50 on human PDE4D (HPDE4D) of 29 nM.
As to `CCOc1ccc(-c2nc(CCC(=O)c3ccccc3OCC)cs2)cc1OCC` [Example 100], the melting point was 84.3 to 86.1 °C. The 50% inhibitory concentration (IC50) against human PDE4D (HPDE4D) was found to be 2.3 nM.
The compound `CCOc1ccc(-c2nc(CCC(=O)c3ccc(Cl)cc3OC)cs2)cc1OCC` [Example 106] came in with a melting point of 102.8 to 104.2 °C. This compound registered a half-inhibitory concentration (IC50) on human PDE4D (HPDE4D) of 5.7 nM.
Taken in the same sequence, the figures for `CCOc1ccc(-c2nc(CCC(=O)c3ccccc3C)cs2)cc1OCC` [Example 107] were 107.1 to 107.4 °C and 5.8 nM.
As for `CCOc1ccc(-c2nc(CCC(O)c3ncccc3OC)cs2)cc1OCC` (centres unmarked) [Example 187, 3-[2-(3,4-diethoxyphenyl)thiazole-4-yl]-1-(3-methoxypyridine-2-yl)-1-propanol dihydrochloride], the IC50 at human PDE4D (HPDE4D) came out at 6.6 nM. This counts as single-digit nanomolar.
With `CCOc1ccc(-c2nc(CCCc3ncccc3OC)cs2)cc1OCC.Cl.Cl` [Example 238, 2-{3-[2-(3,4-diethoxyphenyl)thiazole-4-yl]propyl}-3-methoxypyridine dihydrochloride], the melting point fell in the range of 169.4 to 171.2 °C. The IC50 on human PDE4D (HPDE4D) came to 7.2 nM.
In the same order, the values of `CCOc1ccc(-c2nc(CCC(=O)c3ccccc3C#N)cs2)cc1OCC` [Example 239, 2-{3-[2-(3,4-diethoxyphenyl)thiazole-4-yl]propionyl}benzonitrile] are 113.7 to 114.8 °C and 9.7 nM.

In general, IC50 refers to the concentration that gives 50% inhibition. The low end stands for greater potency, the high end for weaker potency. What is called melting point is the temperature, or range, at which the solid turns liquid.
